The values that follow come from patent US11523995B2, “Compositions and methods for ablating niche cells in testis and other epithelial cells and methods relating thereto” (Duke University, priority 2017, dated 2022).

“Also recorded” adds a separate entry of the source.

In one data set the test system is epithelial cells. Nature of the data set: In vitro epithelial cell ablation in kidney, GI tract, liver and lung tissue culture. The conditions noted are these: 0.03% BC 10 min, cultured 4 days. Format: cell-based, mouse. As for the experimental part: Fragments of the mouse kidney, GI tract, liver and lung were incubated with 0.03% BC for 10 min. After washing several times with PBS, tissues were placed atop 1.5% agarose blocks (214530; Difco), prepared and placed in 6 well tissue culture plates (353046; Falcon) with ˜500 μl of 10% KnockOut Serum Replacement (KSR) (Invitrogen; 10828-028)+DMEM (11995-065; Gibco) to reach halfway up the side of the block. After culture, tissues were washed in PBS and fixed for immunofluorescence. The culture incubator was supplied with 5% (vol/vol) carbon dioxide in air and maintained at 37° C.
We incubated a neonatal kidney, GI tract, liver and lung tissues in 0.03% BC solution for 10 min, washed the tissues several times with PBS and cultured for 4 days at the surface/air interface in wells atop an agarose block (FIG. 9). At the end of that time, the tissues were fixed and stained for immunofluorescence analysis using an antibody against E-CAD (Cadherin1), epithelial marker. […] Although epithelial cells were eliminated in drug treated tissues, LMN (laminin) positive basement membrane and stromal cells which is stained with PDGFRβ were maintained.

In data set [1] the test system is donor spermatogenesis. Briefly: Testicular cell transplantation 7 days post BC treatment. The format is in vivo, mouse. The conditions noted are these: CAG-EGFP pup testicular cells transplanted 7 days post BC. Here is the method:
(§1) 10-15 μl of approximately 1×10^6/ml isolated Sertoli cells or 1×10^8/ml (testicular cells) were injected through the rete testis into the seminiferous tubules of a host mouse on day 4 or day 7 after ablation treatment. A glass needle was back-loaded with the cell suspension and 0.04% Trypan blue to track the efficiency of the injection.
To determine whether the host testes depleted for both Sertoli and germ cells could be used as a scaffold for engraftment of multiple cell types, we performed testicular cell transplantation 7 days post BC treatment (FIG. 7). Nineteen days after testicular cell transplantation from CAG-EGFP pups into a treated host testis, donor Sertoli cells and SSCs colonized. Donor SSCs proliferated with support from donor Sertoli cells, initiated meiosis, and progressed to the spermatocyte stage. EGFP positive leptotene and pachytene spermatocyte were detected. […] Most of these interstitial EGFP bright donor cells were Leydig cells, and some donor PMC colonization was also detected. […] Round spermatids and elongated spermatids generated from donor SSCs with support from donor Sertoli cells were detected in the host testis. In 9/13 testes, donor Sertoli cell and SSC colonization was observed, and full spermatogenesis was detected in 4 of these hosts.

Data set [2] deals with bladder epithelial cells, urothelium. Briefly: BC injection into bladder in vivo. On the set-up: species or system mouse. Here is the method: 2 months old female mice were anesthetized using Avertin or Isoflurane as anesthetic. Using forceps, the top of the urethral orifice was pinched and pulled up without obstructing the urethra at a ˜45° angle. The catheter tubing end was attachded to a 1 mL syringe, and the tip of the tubing rubbed in medicine mineral jelly. The jelly-topped catheter was carefully inserted into the urethra at a ˜45° angle. The syringe was detached from the catheter, and the mouse's stomach was palpated to produce urine. Using another syringe and catheter, the urine that is produced was aspirated, and emptied into other towel. 20 uL of the BC solution (or PBS) was pipetted directly into the catheter using a pipet tip. It was ensured that the pipet tip contacted the catheter, then the cylinder was fully depressed for ˜3 seconds. The liquid was pushed into the bladder by injecting ˜20 uL of air using a syringe. The catheter was removed and the mouse put back into its cage.
We injected a solution of 0.004%, 0.06% BC into the bladder of anesthetized adult female mice to test the effects of the drug on bladder epithelial cells, urothelium. […] However, six days after treatment, urothelium had disappeared from approximately 80% of 0.06% BC treated bladder, some mesenchymal cells were found on straining with antibodies against PDGFRβ and NG2.

In data set [3] the test system is donor spermatogenesis. Briefly: Cryopreserved donor testicular cell transplantation into BC treated testis. The format is in vivo, mouse. The conditions noted are these: cryopreserved (39 days) cells transplanted 7 days after BC; eight weeks after transplantation. As for the experimental part:
After dissociation and washing steps, samples were placed in 2.0 ml cryovials (Corning, N.Y., USA) containing 500 μl of cryopreservation medium, (10% FBS+DMEM containing 10% DMSO). Samples were placed in a controlled freezing device (Mr. Frosty™ Freezing Container, Thermo Fisher Scientific) and cooled in a −80° C. freezer overnight. The following morning the cryovials were transferred to Liquid nitrogen for storage. Prior to use, samples were thawed quickly in a bath warmed to 37° C.
as §1
To test the efficiency of engraftment using cryopreserved donor tissue, we dissociated testis tissue from CAG-EGFP pups, and cryopreserved cells with cryoprotectant including 10% DMSO in liquid nitrogen. Seven days after BC treatment of wild type host mice, cryopreserved (39 days) donor testicular cells were thawed and introduced into the rete testis (FIG. 8). […] In some tubules, cryopreserved Sertoli cells supported host spermatogenesis, and in other tubules, cryopreserved donor Sertoli cells colonized with donor SSCs and supported donor spermatogenesis.

For the next data set, the system named is Sertoli cells. Nature of the data set: Adult Sertoli cell depletion in vivo (injection into rete testis). Also noted: species or system mouse. Here is the method: Host mice were anesthetized. A glass needle was back-loaded with the drug and 0.02% bromophenol blue to track the success of the injection and extent of delivery into the tissue. The mixture was injected into the rete-testis.
Adult mouse testis and canine testis tissues were fixed in 4% (wt/vol) paraformaldehyde in PBS at 4° C. overnight and cryoembedded in OCT compound (Sakura Finetek). Samples were cut into 14-μm-thick cryosections. Incubation with primary antibodies was performed overnight at 4° C., followed by 2 washes, and incubation with secondary antibodies for 1 h at room temperature. Nuclei were counterstained with Hoechst 33342 dye. Samples were mounted on glass slides and imaged with a confocal laser microscope (Zeiss 780).
We injected a solution of 0.02% BC (or PBS as a control) into the rete testis of anesthetized adult male mice to test the effects of the drug on adult Sertoli cells. To detect Sertoli cells easily, we used a Sox9-ECFP transgenic mouse (FIG. 5). […] However, four days after treatment, Sertoli cells had disappeared from approximately 30-40% of seminiferous tubules.

The test system of the next data set is enteric nerve plexus. The conditions noted are these: GI tract treated in vivo; cited from earlier work.

As for benzalkonium chloride [BC], in the data set on epithelial cells, the “LMN positive basement membrane and PDGFRβ stromal cells” value is “maintained”. Also, the “epithelial cell elimination (E-CAD immunofluorescence)” value in the data set with epithelial cells (neonatal kidney, GI tract, liver and lung) is reported as “specifically eliminated epithelial cells”. Also, in the data set with donor spermatogenesis [1], the “hosts with full spermatogenesis (of the colonized testes)” value was 4; the “testes with donor Sertoli cell and SSC colonization” value is 9/13. Also, the inflammation in bladder entry in data set [2] (0.004% BC) is recorded as “did not cause inflammation”. The urothelium depletion result in data set [2] (0.004% BC, day 6) is “urothelium depletion was not detected”. Moreover, the “macrophage invasion in bladder” value in data set [2] (0.03% BC (so in the source)) is on record as “Macrophage invasion were observed”. Also, the “urothelium detachment in the lumen of the bladder” value in data set [2] (0.06% BC, day 6) was “urothelium detachment was observed”. For the same substance, in data set [2] (0.06% BC, six days after treatment), the “part of treated bladder from which urothelium had disappeared” value was “approximately 80%”. Moreover, in the data set on donor spermatogenesis [3], the “host testes colonized by cryopreserved Sertoli cells and SSCs” value is 3/3; the “hosts with full spermatogenesis from donor cells” value is given as 2. In addition, the “Sertoli cell depletion based on SOX9 expression” value with Sertoli cells (0.02% BC into rete testis, day 3) is reported as “Sertoli cell depletion was not detected”. In addition, the “seminiferous tubules from which Sertoli cells had disappeared” value with Sertoli cells (0.02% BC into rete testis, four days after treatment) is recorded as 30-40%. Also, the “Caspase3 positive Sertoli cells (apoptosis)” value in the data set on Sertoli cells (0.02% BC, 4 days after treatment) was “did not detect Caspase3 positive Sertoli cells”. For the same substance, in the data set with Sertoli cells (0.02% BC, day 4), the “Leydig cells and endothelial cells (3βHSD, PECAM1)” value is on record as “not obviously affected”; the “PMCs (SMA staining)” value is on record as “PMCs were intact”; the “SSCs in drug affected tubules (STRA8, Hu C/D, c-KIT)” value was “some SSCs were found along the basal lamina”; the “basic tubular structure (anti-Laminin staining)” value is reported as “basic tubular structure was also intact”. For the same substance, the “macrophage invasion and proliferation (F4/80)” value with Sertoli cells (0.02% BC, day 4) was “many macrophages positive for F4/80 surrounded the affected tubules and some had invaded inside”. Besides, in the data set on Sertoli cells (4 days after 0.02% BC treatment), the “Sertoli cell elimination (summary)” value is reported as “Sertoli cells were eliminated”. For the same substance, the “system-wide / side effects after drug injection into rete testis” value with Sertoli cells (mouse, BC injection) was “no apparent system-wide effects; also recorded: no discernable side effects”. Moreover, in the data set with enteric nerve plexus, the “removal of enteric nerve plexus” value was “remove the mouse and rat enteric nerve plexus”.
